Where two headings read alike, the source gives them in different places. Where a SMILES comes first, the peptide text is derived from it. [ ]: non-standard residue; d: D form. Aoe = N[C@@H](CCCCCC(=O)[C@@H]1CO1)C(=O)O
Legend:
[1] = system: T. gondii RH strain (RH-Tub-eYFP) tachyzoites; assay: microbe, parasite or virus in culture; type: cell-based, Toxoplasma gondii; conditions: 72 h; for percent parasite growth at 2 µg/mL: Toxoplasma gondii
[2] = system: P. falciparum 3D7 parasites; assay: P. falciparum growth inhibition assay, 1-cycle (72 h treatment), SYBR DNA staining (library screen at 2 μg/mL and dose-response); type: cell-based, Plasmodium falciparum; conditions: for activity at 2 µg/mL: Plasmodium falciparum
[3] = system: P. falciparum 3D7 parasites; assay: P. falciparum growth inhibition assay, 2-cycle (120 h treatment), delayed-death screen and dose-response; type: cell-based, Plasmodium falciparum; conditions: for activity at 2 µg/mL: Plasmodium falciparum
[4] = library screen at 2 μg/mL, % growth, replicate 1
[5] = library screen at 2 μg/mL, % growth, replicate 2
[6] = library screen at 2 μg/mL, 72 h, % growth, replicate 1
[7] = library screen at 2 μg/mL, 72 h, % growth, replicate 2
[8] = library screen at 2 μg/mL, 120 h, % growth, replicate 1
[9] = library screen at 2 μg/mL, 120 h, % growth, replicate 2
[10] = T. gondii, screen at 2 μg/mL, replicate 1, read-out: Tg_72h_%Growth_Rep1
[11] = T. gondii, screen at 2 μg/mL, replicate 2, read-out: Tg_72h_%Growth_Rep2

For `CC(=O)OC1CCC2(C)C(CCC3C2CC(=O)C2(C)C3CC3OC4(CCC(C)CO4)C(C)C32)C1` (stereo not drawn) [BIA-H1764], the Tg_72h_%Growth_Rep1 ([1]; T. gondii RH, library screen at 2 μg/mL, % growth, replicate 1) was 117.31%, the Tg_72h_%Growth_Rep2 ([1]; T. gondii RH, library screen at 2 μg/mL, % growth, replicate 2) was 105.95% and the Pf_72h_%Growth_Rep1 ([2]; P. falciparum 3D7, 72 h, library screen at 2 μg/mL, % growth, replicate 1) was 86.38%. The Pf_72h_%Growth_Rep2 ([2]; P. falciparum 3D7, 72 h, library screen at 2 μg/mL, % growth, replicate 2) was 124.08%, the Pf_120h_%Growth_Rep1 ([3]; P. falciparum 3D7, 120 h, library screen at 2 μg/mL, % growth, replicate 1) was 85.47% and the Pf_120h_%Growth_Rep2 ([3]; P. falciparum 3D7, 120 h, library screen at 2 μg/mL, % growth, replicate 2) was 116.07%.
With `C/C=C/C[C@@H](C)[C@@H](O)[C@H]1C(=O)N[C@@H](C(C)C)C(=O)N(C)CC(=O)N(C)[C@@H](CC(C)C)C(=O)N[C@@H](C(C)C)C(=O)N(C)[C@@H](CC(C)C)C(=O)N[C@@H](C)C(=O)N[C@H](C)C(=O)N(C)[C@@H](CC(C)C)C(=O)N(C)[C@@H](CC(C)C)C(=O)N(C)[C@@H](C(C)C)C(=O)N1C` [Cyclosporin D] the Tg_72h_%Growth_Rep1 ([1]; T. gondii, screen at 2 μg/mL, replicate 1) was 61.91%, the Tg_72h_%Growth_Rep2 ([1]; T. gondii, screen at 2 μg/mL, replicate 2) was 54.60% and the Pf_72h_%Growth_Rep1 ([2]; P. falciparum, 72 h, screen at 2 μg/mL, replicate 1) was 1.31%. It also gave a Pf_72h_%Growth_Rep2 ([2]; P. falciparum, 72 h, screen at 2 μg/mL, replicate 2) of 3.21%, a Pf_120h_%Growth_Rep1 ([3]; P. falciparum, 120 h, screen at 2 μg/mL, replicate 1) of -2.52% and a Pf_120h_%Growth_Rep2 ([3]; P. falciparum, 120 h, screen at 2 μg/mL, replicate 2) of -5.39%.
`C[C@@H]1NC(=O)[C@H](CCCCCC(=O)[C@@H]2CO2)NC(=O)[C@H]2CCCN2C(=O)[C@H](Cc2ccccc2)NC1=O` [Alaninechlamydocin, 1-] (cyclo(AF[dP][Aoe])) was tested, and the Tg_72h_%Growth_Rep1 [1, 4] was 2.60%, the Tg_72h_%Growth_Rep2 [1, 5] was 2.26% and the Pf_72h_%Growth_Rep1 [2, 6] was 2.42%. It also gave a Pf_72h_%Growth_Rep2 [2, 7] of 0.98%, a Pf_120h_%Growth_Rep1 [3, 8] of 12.83% and a Pf_120h_%Growth_Rep2 [3, 9] of -6.34%.
`CCC1C=CC2C=C(C)C(OC3CC(C)(O)C(NC(C)=O)C(C)O3)C(C)C=C(C)C3C=CC4C(OC5CC(O)C(OC6CC(OC7CCC(O)C(C)O7)C(OC7CC(O)C(O)C(C)O7)C(C)O6)C(C)O5)C(C)CC(C)C4C3(C)C(O)=C3C(=O)OC2(C1)C3=O` (stereo not drawn) [Saccharocarcin A] was tested, and the Tg_72h_%Growth_Rep1 ([1]; T. gondii, parasite screen 2 μg/mL, % growth, replicate 1) was -0.34%, the Tg_72h_%Growth_Rep2 ([1]; T. gondii, parasite screen 2 μg/mL, % growth, replicate 2) was 2.07% and the Pf_72h_%Growth_Rep1 ([2]; P. falciparum, 72 h, parasite screen 2 μg/mL, % growth, replicate 1) was 25.38%. For the same molecule, the Pf_72h_%Growth_Rep2 ([2]; P. falciparum, 72 h, parasite screen 2 μg/mL, % growth, replicate 2) was 12.51%, the Pf_120h_%Growth_Rep1 ([3]; P. falciparum, 120 h, parasite screen 2 μg/mL, % growth, replicate 1) was 14.27% and the Pf_120h_%Growth_Rep2 ([3]; P. falciparum, 120 h, parasite screen 2 μg/mL, % growth, replicate 2) was 13.84%.
`O=C(O)/C=C/c1c[nH]cn1` [Urocanic acid] gave a percent parasite growth at 2 µg/mL [1, 10] of 81%, a percent parasite growth at 2 µg/mL [1, 11] of 70.9% and an activity at 2 µg/mL ([2]; 3D7, 72 h, P. falciparum, 72 h, screen at 2 μg/mL, replicate 1, read-out: Pf_72h_%Growth_Rep1) of 79.2%. It also gave an activity at 2 µg/mL ([2]; 3D7, 72 h, P. falciparum, 72 h, screen at 2 μg/mL, replicate 2, read-out: Pf_72h_%Growth_Rep2) of 89.3%, an activity at 2 µg/mL ([3]; 3D7, 120 h, P. falciparum, 120 h, screen at 2 μg/mL, replicate 1, read-out: Pf_120h_%Growth_Rep1) of 81.3% and an activity at 2 µg/mL ([3]; 3D7, 120 h, P. falciparum, 120 h, screen at 2 μg/mL, replicate 2, read-out: Pf_120h_%Growth_Rep2) of 51.9%.
In the case of `COC(=O)c1cc(O)cc(OC)c1Oc1cc(C)cc(O)c1C(=O)O` [Asterric Acid], the percent parasite growth at 2 µg/mL ([1]; library screen at 2 μg/mL, % growth, replicate 1, read-out: Tg_72h_%Growth_Rep1) is reported as 79.1%, the percent parasite growth at 2 µg/mL ([1]; library screen at 2 μg/mL, % growth, replicate 2, read-out: Tg_72h_%Growth_Rep2) is reported as 94.1% and the activity at 2 µg/mL ([2]; 3D7, library screen at 2 μg/mL, 72 h, % growth, replicate 1, read-out: Pf_72h_%Growth_Rep1) is reported as 98.8%. For the same molecule, the activity at 2 µg/mL ([2]; 3D7, library screen at 2 μg/mL, 72 h, % growth, replicate 2, read-out: Pf_72h_%Growth_Rep2) was 86.1%, the activity at 2 µg/mL ([3]; 3D7, library screen at 2 μg/mL, 120 h, % growth, replicate 1, read-out: Pf_120h_%Growth_Rep1) was 145% and the activity at 2 µg/mL ([3]; 3D7, library screen at 2 μg/mL, 120 h, % growth, replicate 2, read-out: Pf_120h_%Growth_Rep2) was 103%.
`Nc1ncnc2c1ncn2[C@@H]1O[C@H](CO)C[C@H]1O` [Cordycepin] showed a percent parasite growth at 2 µg/mL [1, 10] of 80%, a percent parasite growth at 2 µg/mL [1, 11] of 99.7% and an activity at 2 µg/mL ([2]; 3D7, P. falciparum, 72 h, screen at 2 μg/mL, replicate 1, read-out: Pf_72h_%Growth_Rep1) of 22.1%. It also gave an activity at 2 µg/mL ([2]; 3D7, P. falciparum, 72 h, screen at 2 μg/mL, replicate 2, read-out: Pf_72h_%Growth_Rep2) of 11.8%, an activity at 2 µg/mL ([3]; 3D7, P. falciparum, 120 h, screen at 2 μg/mL, replicate 1, read-out: Pf_120h_%Growth_Rep1) of 24.5% and an activity at 2 µg/mL ([3]; 3D7, P. falciparum, 120 h, screen at 2 μg/mL, replicate 2, read-out: Pf_120h_%Growth_Rep2) of 12.4%.
Molecule `C=C1CC[C@H]2C(C)(C)CCC[C@]2(C)[C@H]1C[C@@]12C[C@H]3C(=O)N[C@@H](CC(C)C)C(=O)N3[C@@H]1Nc1ccccc12` [Drimentine A] has a Tg_72h_%Growth_Rep1 [1, 4] of 101.23%, a Tg_72h_%Growth_Rep2 [1, 5] of 80.15% and a Pf_72h_%Growth_Rep1 [2, 6] of 31.67%. It also gave a Pf_72h_%Growth_Rep2 [2, 7] of 47.87%, a Pf_120h_%Growth_Rep1 [3, 8] of 26.95% and a Pf_120h_%Growth_Rep2 [3, 9] of 40.06%.
In the case of `COC1/C=C\C=C(/C)C(=O)NC2=CC(=O)C(NCCN(C)C)=C(C[C@@H](C)C[C@H](OC)[C@H](O)[C@@H](C)/C=C(\C)[C@@H]1OC(N)=O)C2=O` (stereo partly drawn), the Tg_72h_%Growth_Rep1 [1, 4] is reported as -1.12%, the Tg_72h_%Growth_Rep2 [1, 5] is reported as -0.16% and the Pf_72h_%Growth_Rep1 [2, 6] is reported as 11.89%. The Pf_72h_%Growth_Rep2 [2, 7] was -0.93%, the Pf_120h_%Growth_Rep1 [3, 8] was 10.33% and the Pf_120h_%Growth_Rep2 [3, 9] was 2.04%.
